Results: US20260285855A1, “HETEROARYL DERIVATIVES AS DDRS INHIBITORS” (CHIESI FARMACEUTICI S.P.A., priority 2023, published 2026)

Assays:
DDR1 = biological target: T1, DDR1 (Homo sapiens, UniProt Q08345); assay: LanthaScreen Europium Kinase Binding assay, DDR1; settings: 5 nM DDR1, 20 nM Kinase Tracer 178, 1 h at rt; Ki from IC50 by Cheng-Prusoff; read-out: Ki DDR1
T1 construct: purchased Carna Biosciences
Description: (§1) DDR1 and DDR2 binding assays were performed using Life Technologies LanthaScreen™ Europium Kinase Binding assay. […] IC50 values were determined in GraphPad Prism 7.0 software, using 4 parameter model: log (inhibitor) vs. response. IC50 values were converted in Ki using the Cheng-Prusoff equation (Ki-IC50/(1+ [Tracer]/Kd).

DDR2 = biological target: T2, DDR2 (Homo sapiens, UniProt Q16832); assay: LanthaScreen Europium Kinase Binding assay, DDR2; settings: 5 nM DDR2, 10 nM Kinase Tracer 178, 1 h at rt; Ki from IC50 by Cheng-Prusoff; read-out: Ki DDR2
T2 construct: purchased Life Technologies
T2 sequence (Q16832 22-855): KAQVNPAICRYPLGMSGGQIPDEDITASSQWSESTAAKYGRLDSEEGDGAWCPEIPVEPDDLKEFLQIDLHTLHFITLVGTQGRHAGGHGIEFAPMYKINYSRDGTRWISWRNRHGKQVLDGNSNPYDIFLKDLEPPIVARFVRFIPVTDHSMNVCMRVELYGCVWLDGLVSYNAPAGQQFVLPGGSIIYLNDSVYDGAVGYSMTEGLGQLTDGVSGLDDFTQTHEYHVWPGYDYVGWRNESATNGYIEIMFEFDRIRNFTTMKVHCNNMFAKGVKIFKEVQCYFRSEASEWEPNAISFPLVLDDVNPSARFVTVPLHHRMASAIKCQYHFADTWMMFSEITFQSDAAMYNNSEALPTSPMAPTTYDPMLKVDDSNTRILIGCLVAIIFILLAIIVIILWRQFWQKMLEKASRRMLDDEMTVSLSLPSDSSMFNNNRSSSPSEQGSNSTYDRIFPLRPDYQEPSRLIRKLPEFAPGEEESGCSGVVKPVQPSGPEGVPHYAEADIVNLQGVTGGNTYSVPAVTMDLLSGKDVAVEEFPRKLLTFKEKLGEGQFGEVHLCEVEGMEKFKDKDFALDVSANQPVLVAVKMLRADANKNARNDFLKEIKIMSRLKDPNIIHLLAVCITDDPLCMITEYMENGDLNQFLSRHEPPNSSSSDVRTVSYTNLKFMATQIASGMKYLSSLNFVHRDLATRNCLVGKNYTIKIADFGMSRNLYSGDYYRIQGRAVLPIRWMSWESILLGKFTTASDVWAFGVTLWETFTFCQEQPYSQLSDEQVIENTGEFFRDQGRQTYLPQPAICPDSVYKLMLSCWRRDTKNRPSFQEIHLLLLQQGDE
Description: as §1

T1 sequence (Q08345 19-913): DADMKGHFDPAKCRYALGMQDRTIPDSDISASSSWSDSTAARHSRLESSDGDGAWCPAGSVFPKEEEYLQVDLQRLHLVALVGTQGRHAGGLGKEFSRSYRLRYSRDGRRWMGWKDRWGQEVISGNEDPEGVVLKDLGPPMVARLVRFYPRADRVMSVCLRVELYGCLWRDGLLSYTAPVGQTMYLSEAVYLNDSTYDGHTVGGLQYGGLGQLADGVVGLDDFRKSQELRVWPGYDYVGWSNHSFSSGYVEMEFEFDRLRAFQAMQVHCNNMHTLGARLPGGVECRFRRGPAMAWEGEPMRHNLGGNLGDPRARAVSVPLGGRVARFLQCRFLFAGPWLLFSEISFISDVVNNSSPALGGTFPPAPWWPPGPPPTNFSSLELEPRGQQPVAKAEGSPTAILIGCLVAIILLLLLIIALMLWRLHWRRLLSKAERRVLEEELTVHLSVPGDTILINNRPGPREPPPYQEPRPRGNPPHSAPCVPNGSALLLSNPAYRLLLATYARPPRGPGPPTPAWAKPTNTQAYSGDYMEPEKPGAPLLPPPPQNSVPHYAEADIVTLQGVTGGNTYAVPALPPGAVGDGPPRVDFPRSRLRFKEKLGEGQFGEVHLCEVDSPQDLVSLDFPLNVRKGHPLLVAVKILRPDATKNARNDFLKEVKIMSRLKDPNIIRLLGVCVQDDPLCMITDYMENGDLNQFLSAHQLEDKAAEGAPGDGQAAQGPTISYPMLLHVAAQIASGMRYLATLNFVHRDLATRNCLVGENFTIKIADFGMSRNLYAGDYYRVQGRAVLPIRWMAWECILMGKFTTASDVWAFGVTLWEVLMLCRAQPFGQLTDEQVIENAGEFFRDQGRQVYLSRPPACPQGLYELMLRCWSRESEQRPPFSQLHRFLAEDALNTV

SMILES | Ki (DDR1) [nM] | Ki (DDR2) [nM]
CN(C(=O)Nc1cc(C(F)(F)F)cc(Cl)n1)C1CC2(C1)CN(C(=O)c1cnn3ccn(C)c13)C2 [Example 267, 3-(6-chloro-4-(trifluoromethyl)pyridin-2-yl)-1-methyl-1-(2-(1-methyl-1H-imidazo[1,2-b]pyrazole-7-carbonyl)-2-azaspiro[3.3]heptan-6-yl)urea] | < 5 | < 5
Cc1cc(NC(=O)N(C)C2CC3(C2)CN(C(=O)c2ncnc4[nH]ccc24)C3)cc(C(F)(F)F)c1 [Example 268, 1-(2-(7H-pyrrolo[2,3-d]pyrimidine-4-carbonyl)-2-azaspiro[3.3]heptan-6-yl)-1-methyl-3-(3-methyl-5-(trifluoromethyl)phenyl)urea] | < 5 | 5 to 25
Cc1ccc(C(F)(F)F)cc1NC(=O)OC1CC2(C1)CN(C(=O)c1cnn3ccn(C)c13)C2 [Example 270, 2-(1-methyl-1H-imidazo[1,2-b]pyrazole-7-carbonyl)-2-azaspiro[3.3]heptan-6-yl(2-methyl-5-(trifluoromethyl)phenyl)carbamate] | < 5 | < 5
Cn1ccn2ncc(C(=O)N3CC4(CC(OC(=O)Nc5cc(C(C)(C)C(F)(F)F)on5)C4)C3)c12 [Example 271, 2-(1-methyl-1H-imidazo[1,2-b]pyrazole-7-carbonyl)-2-azaspiro[3.3]heptan-6-yl(5-(1,1,1-trifluoro-2-methylpropan-2-yl)isoxazol-3-yl)carbamate] | < 5 | < 5
O=C(Nc1cc(OC(F)(F)F)ccn1)OC1CC2(C1)CN(C(=O)c1cnn3ccsc13)C2 [Example 272, 2-(pyrazolo[5,1-b]thiazole-7-carbonyl)-2-azaspiro[3.3]heptan-6-yl(4-(trifluoromethoxy)pyridin-2-yl)carbamate] | < 5 | < 5
O=C(Nc1cncc(C(F)(F)F)c1)OC1CC2(C1)CN(C(=O)c1cnn3ccsc13)C2 [Example 273, 2-(pyrazolo[5,1-b]thiazole-7-carbonyl)-2-azaspiro[3.3]heptan-6-yl(5-(trifluoromethyl)pyridin-3-yl)carbamate] | < 5 | < 5
Cn1ccn2ncc(C(=O)N3CC4(CC(CC(=O)Nc5cncc(C(F)(F)F)c5)C4)C3)c12 [Example 274, 2-(2-(1-methyl-1H-imidazo[1,2-b]pyrazole-7-carbonyl)-2-azaspiro[3.3]heptan-6-yl)-N-(5-(trifluoromethyl)pyridin-3-yl)acetamide] | < 5 | 5 to 25
O=C(CC1CC2(C1)CN(C(=O)c1cnn3ccsc13)C2)Nc1cncc(OC(F)(F)F)c1 [Example 275, 2-(2-(pyrazolo[5,1-b]thiazole-7-carbonyl)-2-azaspiro[3.3]heptan-6-yl)-N-(5-(trifluoromethoxy)pyridin-3-yl)acetamide] | < 5 | < 5
Cn1ccn2ncc(C(=O)N3CC4(CC(CC(=O)Nc5cc(OC(F)(F)F)ccc5F)C4)C3)c12 [Example 276, N-(2-fluoro-5-(trifluoromethoxy)phenyl)-2-(2-(1-methyl-1H-imidazo[1,2-b]pyrazole-7-carbonyl)-2-azaspiro[3.3]heptan-6-yl)acetamide] | < 5 | < 5
Cn1ccn2ncc(C(=O)N3CC4(CC(CC(=O)Nc5cc(OC(F)(F)F)ccn5)C4)C3)c12 [Example 277, 2-(2-(1-methyl-1H-imidazo[1,2-b]pyrazole-7-carbonyl)-2-azaspiro[3.3]heptan-6-yl)-N-(4-(trifluoromethoxy)pyridin-2-yl)acetamide] | < 5 | 5 to 25
Cc1ccc(OC(F)(F)F)cc1NC(=O)CC1CC2(C1)CN(C(=O)c1cnn3ccn(C)c13)C2 [Example 278, 2-(2-(1-methyl-1H-imidazo[1,2-b]pyrazole-7-carbonyl)-2-azaspiro[3.3]heptan-6-yl)-N-(2-methyl-5-(trifluoro-methoxy)phenyl)acetamide] | < 5 | 5 to 25
Cn1ccn2ncc(C(=O)N3CC4(CC(CC(=O)Nc5cc(C(F)(F)F)ccn5)C4)C3)c12 [Example 279, 2-(2-(1-methyl-1H-imidazo[1,2-b]pyrazole-7-carbonyl)-2-azaspiro[3.3]hepan-6-yl)-N-(4-(trifluoromethyl)pyridin-2-yl)acetamide] | < 5 | < 5
Cc1ccc(OC(F)(F)F)cc1NC(=O)N(C)C1CC2(C1)CN(C(=O)c1ncnc3ccsc13)C2 [Example 280, 1-methyl-3-(2-methyl-5-(trifluoromethoxy)phenyl)-1-(2-(thieno[3,2-d]pyrimidine-4-carbonyl)-2-azaspiro[3.3]heptan-6-yl)urea] | < 5 | < 5
Cc1cc(NC(=O)N(C)C2CC3(C2)CN(C(=O)c2cnn4ccn(C)c24)C3)cc(OC(F)(F)F)c1 [Example 281, 1-methyl-1-(2-(1-methyl-1H-imidazo[1,2-b]pyrazole-7-carbonyl)-2-azaspiro[3.3]heptan-6-yl)-3-(3-methyl-5-(trifluoromethoxy)phenyl)urea] | < 5 | 5 to 25
CCc1ccc(C(F)(F)F)cc1NC(=O)NC1CC2(C1)CN(C(=O)c1cnn3ccn(C)c13)C2 [Example 282, 1-(2-ethyl-5-(trifluoromethyl)phenyl)-3-(2-(1-methyl-1H-imidazo[1,2-b]pyrazole-7-carbonyl)-2-azaspiro[3.3]heptan-6-yl)urea] | < 5 | < 5

Other lines, results leading:

Ki (DDR1) [nM] | Ki (DDR2) [nM] | SMILES
< 5 | 25 to 100 | CN(C(=O)Nc1cc(C(F)(F)F)cnn1)C1CC2(C1)CN(C(=O)c1cnn3ccccc13)C2 [Example 259, 1-methyl-1-(2-(pyrazolo[1,5-a]pyridine-3-carbonyl)-2-azaspiro[3.3]heptan-6-yl)-3-(5-(trifluoromethyl)pyridazin-3-yl)urea]
< 5 | 5 to 25 | COc1ccc(C(F)(F)F)cc1NC(=O)N(C)C1CC2(C1)CN(C(=O)c1ncnc3[nH]ccc13)C2 [Example 260, 1-(2-(7H-pyrrolo[2,3-d]pyrimidine-4-carbonyl)-2-azaspiro[3.3]heptan-6-yl)-3-(2-methoxy-5-(trifluoromethyl)phenyl)-1-methylurea]
< 5 | 5 to 25 | Cc1c(-c2ccc3c(C(=O)N4CC5(CC(N(C)C(=O)Nc6cncc(C(F)(F)F)c6)C5)C4)cnn3c2)cnn1C [Example 261, 1-(2-(6-(1,5-dimethyl-1H-pyrazol-4-yl)pyrazolo[1,5-a]pyridine-3-carbonyl)-2-azaspiro[3.3]heptan-6-yl)-1-methyl-3-(5-(trifluoromethyl)pyridin-3-yl)urea]
< 5 | 5 to 25 | COc1ncc(C(F)(F)F)cc1NC(=O)NC1CC2(C1)CN(C(=O)c1cnn3ccsc13)C2 [Example 262, 1-(2-methoxy-5-(trifluoromethyl)pyridin-3-yl)-3-(2-(pyrazolo[5,1-b]thiazole-7-carbonyl)-2-azaspiro[3.3]heptan-6-yl)urea]
< 5 | 5 to 25 | CN(C(=O)Nc1cc(C(F)(F)F)ccn1)C1CC2(C1)CN(C(=O)c1ncnc3ccsc13)C2 [Example 263, 1-methyl-1-(2-(thieno[3,2-d]pyrimidine-4-carbonyl)-2-azaspiro[3.3]heptan-6-yl)-3-(4-(trifluoromethyl)pyridin-2-yl)urea]
< 5 | 5 to 25 | CCc1ccc(C(F)(F)F)cc1NC(=O)N(C)C1CC2(C1)CN(C(=O)c1cnn3ccn(C)c13)C2 [Example 264, 3-(2-ethyl-5-(trifluoromethyl)phenyl)-1-methyl-1-(2-(1-methyl-1H-imidazo[1,2-b]pyrazole-7-carbonyl)-2-azaspiro[3.3]heptan-6-yl)urea]
< 5 | < 5 | Cc1c(F)cc(NC(=O)N(C)C2CC3(C2)CN(C(=O)c2cnn4ccn(C)c24)C3)cc1C(F)(F)F [Example 265, 3-(3-fluoro-4-methyl-5-(trifluoromethyl)phenyl)-1-methyl-1-(2-(1-methyl-1H-imidazo[1,2-b]pyrazole-7-carbonyl)-2-azaspiro[3.3]heptan-6-yl)urea]
< 5 | 5 to 25 | CN(C(=O)Nc1cncc(C(F)(F)C(F)(F)F)c1)C1CC2(C1)CN(C(=O)c1cnn3ccn(C)c13)C2 [Example 266, 1-methyl-1-(2-(1-methyl-1H-imidazo[1,2-b]pyrazole-7-carbonyl)-2-azaspiro[3.3]heptan-6-yl)-3-(5-(perfluoroethyl)pyridin-3-yl)urea]
